Measured values from US20180015100A1, “COMBINATION PRODUCTS FOR THE TREATMENT OF BACTERIAL INFECTIONS AND METHODS OF PRODUCING OR DOSING OF SAME” (priority 2016, published 2018).
Converted amounts (≈) assume the structure as drawn. Like-named read-outs stand apart in the source and are kept apart here.

How the values were obtained:
Format in all cases: cell-based
[1] = tested on: Enterobacter aerogenes isolates; experiment: MIC of cephalosporins alone or with clavulanate/tazobactam; conditions: Klebsiella aerogenes, clavulanate 2:1, tazobactam 4 μg/mL
[2] = tested on: Klebsiella oxytoca isolates; experiment: as above; conditions: clavulanate 2:1, tazobactam 4 μg/mL
[3] = tested on: Klebsiella pneumoniae isolates; experiment: as above; conditions: clavulanate 2:1, tazobactam 4 μg/mL
[4] = tested on: 385 Escherichia coli and 126 Klebsiella pneumoniae isolates; experiment: MIC, MIC50 and MIC90 by reference broth microdilution against 511 UTI/bloodstream isolates (USA and Europe 2014-2015)
[5] = 365 isolates producing CTX-M enzymes

Structure (SMILES): Nc1nc(/C(=C/CC(=O)O)C(=O)N[C@@H]2C(=O)N3C(C(=O)O)=CCS[C@H]23)cs1 [Ceftibuten, ceftibuten]
- MIC ([1]; AEAE1027 (CTX-M-14)): 1 µg/mL
- MIC ([1]; AEAE1029 (CTX-M-15)): 8 µg/mL
- MIC ([2]; AKOX1005 (SHV-2, TEM-1, DHA-1)): 2 µg/mL
- MIC ([2]; AKOX1009 (CTX-M-15)): 4 µg/mL
- MIC ([3]; AKPN1159 (SHV-12)): 4 µg/mL
- MIC ([3]; AKPN1161 (SHV-7)): 2 µg/mL
- MIC ([3]; AKPN1162 (CTX-M-15, SHV-12)): 32 µg/mL
- MIC ([3]; AKPN1166 (CTX-M-14, SHV-12)): 4 µg/mL
- MIC ([3]; AKPN1167 (SHV-2)): 2 µg/mL
- % of the isolates inhibited at ≦1 μg/mL [4, 5]: 19.7%
- % of the isolates inhibited at ≦8 μg/mL [4, 5]: 64.4%
- MIC50 ([4]; 365 isolates producing CTX-M enzymes (no transferrable AmpC/carbapenemase)): 8 µg/mL (≈ 19.5 µM)
- MIC90 ([4]; 365 isolates producing CTX-M enzymes (no transferrable AmpC/carbapenemase), read-out: MIC90): 32 µg/mL (≈ 78 µM)
- MIC90 ([4]; 379 E. coli or K. pneumoniae isolates genotyped for CTX-M, TEM, or SHV ESBLs, 2:1 ratio): ~32 µg/mL
- MIC50 ([4]; 511 isolates): 8 µg/mL (≈ 19.5 µM)
- MIC90 ([4]; 511 isolates): >32 µg/mL
- MIC90 ([4]; 511 isolates, read-out: MIC90): > 32 µg/mL
- MIC50 ([4]; All CTX-M-producing K pneumoniae (71)): 8 µg/mL (≈ 19.5 µM)
- MIC90 ([4]; All CTX-M-producing K pneumoniae (71), read-out: MIC90): > 32 µg/mL
- MIC50 ([4]; All CTX-M-producing isolates (365)): 8 µg/mL (≈ 19.5 µM)
- MIC90 ([4]; All CTX-M-producing isolates (365), read-out: MIC90): 32 µg/mL (≈ 78 µM)
- MIC50 ([4]; Enterobacteriaceae (511)): 8 µg/mL (≈ 19.5 µM)
- MIC90 ([4]; Enterobacteriaceae (511), read-out: MIC90): > 32 µg/mL
- MIC50 ([4]; Escherichia coli, All CTX-M-producing E. coli (294)): 8 µg/mL (≈ 19.5 µM)
- MIC90 ([4]; Escherichia coli, All CTX-M-producing E. coli (294), read-out: MIC90): 32 µg/mL (≈ 78 µM)
- MIC50 ([4]; Escherichia coli, E. coli (385)): 8 µg/mL (≈ 19.5 µM)
- MIC90 ([4]; Escherichia coli, E. coli (385), read-out: MIC90): > 32 µg/mL
- MIC50 ([4]; Isolates producing CTX-M Group 1 (276)): 8 µg/mL (≈ 19.5 µM)
- MIC90 ([4]; Isolates producing CTX-M Group 1 (276), read-out: MIC90): > 32 µg/mL
- MIC50 ([4]; Isolates producing CTX-M Group 9 (92)): 1 µg/mL (≈ 2.44 µM)
- MIC90 ([4]; Isolates producing CTX-M Group 9 (92), read-out: MIC90): 16 µg/mL (≈ 39 µM)
- MIC50 ([4]; Isolates producing SHV ESBL (18)): 1 µg/mL (≈ 2.44 µM)
- MIC90 ([4]; Isolates producing SHV ESBL (18), read-out: MIC90): 16 µg/mL (≈ 39 µM)
- MIC50 ([4]; Isolates producing transferable AmpC (57)): > 32 µg/mL
- MIC90 ([4]; Isolates producing transferable AmpC (57), read-out: MIC90): > 32 µg/mL
- MIC50 ([4]; K pneumoniae (126)): 8 µg/mL (≈ 19.5 µM)
- MIC90 ([4]; K pneumoniae (126), read-out: MIC90): > 32 µg/mL
- MIC50 ([4]; KPC-producers (25)): 8 µg/mL (≈ 19.5 µM)
- MIC90 ([4]; KPC-producers (25), read-out: MIC90): 32 µg/mL (≈ 78 µM)
- cumulative % of isolates at MIC ([4]; MIC 0.015 μg/mL, All CTX-M-producing K pneumoniae (71)): (0.0) %
- cumulative % of isolates at MIC ([4]; MIC 0.015 μg/mL, All CTX-M-producing isolates (365)): (0.0) %
- cumulative % of isolates at MIC ([4]; MIC 0.015 μg/mL, Isolates producing CTX-M Group 9 (92)): (0.0) %
- cumulative % of isolates at MIC ([4]; MIC 0.015 μg/mL, Isolates producing SHV ESBL (18)): (0.0) %
- cumulative % of isolates at MIC ([4]; MIC 0.015 μg/mL, K pneumoniae (126)): (0.0) %
- cumulative % of isolates at MIC ([4]; MIC 0.03 μg/mL, All CTX-M-producing K pneumoniae (71)): (1.4) %
- cumulative % of isolates at MIC ([4]; MIC 0.03 μg/mL, All CTX-M-producing isolates (365)): (0.3) %
- cumulative % of isolates at MIC ([4]; MIC 0.03 μg/mL, E. coli (385)): (0.0) %
- cumulative % of isolates at MIC ([4]; MIC 0.03 μg/mL, Isolates producing CTX-M Group 9 (92)): (1.1) %
- cumulative % of isolates at MIC ([4]; MIC 0.03 μg/mL, Isolates producing SHV ESBL (18)): (11.1) %
- cumulative % of isolates at MIC ([4]; MIC 0.03 μg/mL, K pneumoniae (126)): (4.0) %
- cumulative % of isolates at MIC ([4]; MIC 0.06 μg/mL, All CTX-M-producing E. coli (294)): (0.0) %
- cumulative % of isolates at MIC ([4]; MIC 0.06 μg/mL, All CTX-M-producing K pneumoniae (71)): (2.8) %
- cumulative % of isolates at MIC ([4]; MIC 0.06 μg/mL, All CTX-M-producing isolates (365)): (0.5) %
- cumulative % of isolates at MIC ([4]; MIC 0.06 μg/mL, E. coli (385)): (0.3) %
- cumulative % of isolates at MIC ([4]; MIC 0.06 μg/mL, Isolates producing CTX-M Group 9 (92)): (2.2) %
- cumulative % of isolates at MIC ([4]; MIC 0.06 μg/mL, Isolates producing SHV ESBL (18)): (16.7) %
- cumulative % of isolates at MIC ([4]; MIC 0.06 μg/mL, K pneumoniae (126)): (6.3) %
- cumulative % of isolates at MIC ([4]; MIC 0.5 μg/mL, All CTX-M-producing E. coli (294)): (10.5) %
- cumulative % of isolates at MIC ([4]; MIC 0.5 μg/mL, All CTX-M-producing K pneumoniae (71)): (7.0) %
- cumulative % of isolates at MIC ([4]; MIC 0.5 μg/mL, All CTX-M-producing isolates (365)): (9.9) %
- cumulative % of isolates at MIC ([4]; MIC 0.5 μg/mL, E. coli (385)): (10.4) %
- cumulative % of isolates at MIC ([4]; MIC 0.5 μg/mL, Enterobacteriaceae (511)): (10.8) %
- cumulative % of isolates at MIC ([4]; MIC 0.5 μg/mL, Isolates producing CTX-M Group 1 (276)): (3.6) %
- cumulative % of isolates at MIC ([4]; MIC 0.5 μg/mL, Isolates producing CTX-M Group 9 (92)): (28.3) %
- cumulative % of isolates at MIC ([4]; MIC 0.5 μg/mL, Isolates producing SHV ESBL (18)): (38.9) %
- cumulative % of isolates at MIC ([4]; MIC 0.5 μg/mL, K pneumoniae (126)): (11.9) %
- cumulative % of isolates at MIC ([4]; MIC 1 μg/mL, All CTX-M-producing E. coli (294)): (22.1) %
- cumulative % of isolates at MIC ([4]; MIC 1 μg/mL, All CTX-M-producing K pneumoniae (71)): (9.9) %
- cumulative % of isolates at MIC ([4]; MIC 1 μg/mL, All CTX-M-producing isolates (365)): (19.7) %
- cumulative % of isolates at MIC ([4]; MIC 1 μg/mL, E. coli (385)): (19.7) %
- cumulative % of isolates at MIC ([4]; MIC 1 μg/mL, Isolates producing CTX-M Group 1 (276)): (9.1) %
